The values that follow come from patent US20250270180A1, “MEK INHIBITORS AND THERAPEUTIC USES THEREOF” (Immuneering Corporation, priority 2020, published 2025).

One series relates to A549 (KRAS-G12S) pERK. In words: Cell-based pERK dose response study, A549. The note with it: Homo sapiens; A549; 12-point dose; 2 hours. The protocol:
Materials and Methods: A549 or A375 cells were seeded in 6-well plates at an appropriate seeding density on day 0. On day 2 or 3, after checking the health and confluency of cells, the media was aspirated and replaced with 1 mL media containing a predetermined concentration of compound and incubated for 2 hours. After 2 hours, the media was aspirated, and the cells washed 2 times with cold PBS. Cells were lysed on ice, with 50 uL 1×CST lysis buffer+1 mM PMSF for 5 minutes. After 5 minutes, cells were removed using a scraper and transferred to cold 1.5 mL tubes, and centrifuged for 10 min, 4° C., 14,000×g. Supernatant was gently removed and snap frozen in liquid nitrogen. Protein concentration of the lysate was determined using Bradford Reagent (analyzed using SpectraMax M2E) and diluted to 1 mg/mL or pERK or 1.5 mg/mL for pMEK analysis. […] All dilutions were in Milk-free antibody diluent.

The test system of a further series is A549 pMEK:tMEK (CRAF). In words: CRAF-bypass pMEK:tMEK, A549. It is filed as cell-based. The protocol:
Materials and Methods: A549 or A375 cells were seeded in 6-well plates at an appropriate seeding density on day 0. On day 2 or 3, after checking the health and confluency of cells, the media was aspirated and replaced with 1 mL media containing a predetermined concentration of compound and incubated for 2 hours. After 2 hours, the media was aspirated, and the cells washed 2 times with cold PBS. Cells were lysed on ice, with 50 uL 1×CST lysis buffer+1 mM PMSF for 5 minutes. After 5 minutes, cells were removed using a scraper and transferred to cold 1.5 mL tubes, and centrifuged for 10 min, 4° C., 14,000×g. Supernatant was gently removed and snap frozen in liquid nitrogen. Protein concentration of the lysate was determined using Bradford Reagent (analyzed using SpectraMax M2E) and diluted to 1 mg/mL or pERK or 1.5 mg/mL for pMEK analysis. Cell lysates were then analyzed for phosphor-ERK/total-ERK levels on a Jess system (ProteinSimple; Cat #JS3346) using the following antibodies: tERK1/2 (CST 4696; 1:50) and pERK1/2 (CST 4377; 1:50). […]
A549 or […] cells were treated in duplicate for two hours with compounds at varying concentrations. […] After storage, the lysate was quantified with the Bradford assay. Before the lysates were prepared to run on the Jess, the lysates were diluted to 1 mg/mL for pERK analysis and 1.5 mg/mL pMEK analysis using quantitative Western blotting. […]

A short description of series [1]: Mouse liver microsome stability (t1/2, Clint). Type of series: in vitro ADME. The note with it: liver microsomes, pH 7.4, 0.5 mg/ml microsomal protein. On the procedure:
(Eppendorf 5804R). […] The disappearance of the parent compound was determined.
For orientation: Liver microsomes are vesicles of endoplasmic reticulum, rich in cytochrome P450 enzymes.

The nature of series [2]: Human liver microsome stability (t1/2, Clint). As to conditions: microsomes, pH 7.4, 0.5 mg/ml microsomal protein. Type of series: in vitro ADME.
Series [3] can be described thus: Kinetic solubility (PBS pH 7.4; 4 hr). It is filed as physicochemical. The note with it: 10 mM PBS buffer, aqueous buffer, kinetic from dmso stock. On the procedure:
The plates were shaken for 4 h at room temperature in an Eppendorf Thermomixer. After incubation, the plates were centrifuged for 20 minutes at 4680 rpm. From the supernatant, 150 uL was transferred to a new 96 well plate and 50 uL DMSO was added to ensure continued dissolution. Samples were measured on LC-UV at injection volumes of 1 and 8 uL. Peak areas were determined and compared to peak areas obtained using calibration curves of the test compounds in DMSO.

A short description of series [4]: eLogD (lipophilicity; pH 7.4). It is filed as physicochemical. The protocol:
Test compounds were dissolved in DMSO at a concentration of 10 mM and further diluted with methanol: water 1:1. Samples were analyzed using gradient HPLC with three different isocratic mobile phases of 0.25% octanol in methanol (60, 65 and 70%) and 20 mM MOPS buffer (pH 7.4) with decylamine. If needed, (for low ElogDoct compounds) the isocratic mobile phases were adjusted to e.g. 40, 45 and 50% methanol. Peaks were detected using a diode array at absorbance 220-320 nm.
Capacity factors data (k′ _=(tr−_t0)/t0) obtained at various amounts of methanol were extrapolated to 0% methanol and k′w values are determined using a linear procedure. ElogDoct (7.4) is calculated using a series of reference standards with known Log D values. Each experiment was performed in triplicate.

Another series can be described thus: PAMPA (pH 7.4). As to conditions: PAMPA. On the procedure:
Each stock solution was diluted to 50 uM in pH 7.4 Prisma HT buffer (pION) and 200 ul was added to each well of the donor plate in triplicate. The polyvinylidene fluoride (PVDF, 0.45 μm) filter membrane on the acceptor plate was coated with 5 ul gastrointestinal tract lipid formulation (GIT-0, pION) and to each well of the acceptor plate, 200 μl of acceptor sink buffer (pION) was added. The acceptor filter plate was then carefully placed on top of the donor plate to form a sandwich. The sandwich was incubated at 25° C. for 4 h without stirring. UV-vis spectra of the solutions in the blank, reference, acceptor and donor plates were measured using a microplate reader (Tecan Infinite 200PRO M Nano Plus). Permeability values were calculated using the PAMPA explorer software v. 3.8.0.2 (pION).

A short description of series [5]: Single dose PK profile (plasma and tumor) in Colon26 tumor bearing mice. The note with it: female, mouse. It is filed as in vivo. On the procedure: Female mice (either athymic BALC/c nude, or BALB/c mice) were inoculated with a single subcutaneous injection of 0.1 ml of mouse Colon-26 cell suspension (1×10^5 cells per animal) in the right flank region. Colon26 (C26) tumor bearing mice received a single dose (3-4 mice/treatment) of vehicle (10% DMSO/90% [20% SBE-B-CD in saline], pH 5) containing compounds at indicated dose by gavage (p.o.) or intravenous administration (i.v.) and at various time points (0.16, 0.5, 1, 2, 4, 8, 12, 16, 24-hour) post dose humanely euthanized. Blood was obtained through cardiac puncture into K+EDTA tubes, mixed by inversion and centrifuged to obtain the plasma. Tissues were excised, cleaned of surrounding tissues. All samples immediately snap frozen in liquid N2 prior to LC-MS/MS analysis (using Agilent Poroshell-120 EC-C18 (4.0 μm) 2.1×50 mm, and a Water+API-4000 Electrospray MS unit). The results of this study are illustrated in FIGS. 16, and 17. Tables 11 describes a single does PK profile (plasma) and Table 12 describes a single dose PK profile (tumor).

The next series in a line: in vitro. As to conditions: human, Caco-2.
The conditions of series [6]: Inv New Drugs (2018) 36, 1037-1043; cited from earlier work.
A further series addresses CYP450 2D6 (Homo sapiens, UniProt P10635).
The mark [7] stands for this setting: athymic BALB/c nude or BALB/c, iv, 25 mg/kg, plasma, 25 mpk i.v.
Setting [8] is: athymic BALB/c nude or BALB/c, po, 25 mg/kg, plasma, 25 mpk p.o.
Where [9] appears, read: athymic BALB/c nude or BALB/c, po, 100 mg/kg, plasma, 100 mpk p.o.
Where [10] appears, read: iv, 25 mg/kg, plasma, 25 mpk i.v.
[11] abbreviates: iv, 25 mg/kg, tumor, 25 mpk i.v.
[12] abbreviates: po, 25 mg/kg, plasma, 25 mpk p.o.
[13] abbreviates: po, 25 mg/kg, tumor, 25 mpk p.o.
[14] abbreviates: po, 100 mg/kg, plasma, 100 mpk p.o.
Setting [15] is: po, 100 mg/kg, tumor, 100 mpk p.o.

pIC50: −log10 of the molar value.

Sequence of CYP450 2D6 (P10635 whole entry): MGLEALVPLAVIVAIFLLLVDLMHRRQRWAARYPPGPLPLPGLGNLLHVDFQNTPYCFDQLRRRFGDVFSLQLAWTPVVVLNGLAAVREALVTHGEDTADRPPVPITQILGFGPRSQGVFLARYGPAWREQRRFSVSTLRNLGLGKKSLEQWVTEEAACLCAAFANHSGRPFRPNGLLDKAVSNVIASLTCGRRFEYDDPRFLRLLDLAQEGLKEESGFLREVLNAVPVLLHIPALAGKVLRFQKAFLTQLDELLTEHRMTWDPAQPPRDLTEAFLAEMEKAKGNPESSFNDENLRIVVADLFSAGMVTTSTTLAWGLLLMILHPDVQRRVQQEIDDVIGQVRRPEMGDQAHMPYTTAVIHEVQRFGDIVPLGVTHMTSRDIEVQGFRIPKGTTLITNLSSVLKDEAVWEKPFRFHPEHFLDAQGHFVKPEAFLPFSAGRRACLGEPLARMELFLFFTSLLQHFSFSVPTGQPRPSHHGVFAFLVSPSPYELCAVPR

The pIC50 is the negative decadic logarithm of the IC50, by convention in mol/L. Higher therefore signals a low IC50. As usually defined, the half-life is the time needed for the level to fall by half in the phase considered. Usually microsomal CLint stands for the capacity of the preparation to metabolise the compound, expressed as a volume cleared per time. A low value points to slow turnover. Broadly, the kinetic solubility is solubility judged after dilution from a stock solution rather than from solid. The chromatographic logD is lipophilicity estimated from chromatographic retention. A lower chromatographic logD goes with a more hydrophilic compound. Usually Papp stands for the rate of passage across a membrane or cell layer, normalised by area and donor concentration. The low end stands for poor permeation, the high end for ready permeation. By Tmax is commonly meant the time from dosing to the highest level. As a reminder, the AUC(0-inf) is total exposure, with the tail of the curve extrapolated. A high value points to more exposure. Broadly, the AUC(0-t) is the area under the concentration-time curve up to a stated or last time point. What is called Cmax is the highest concentration seen after dosing. `CNS(=O)(=O)Nc1cccc(Cc2c(CN3CCC3)c3ccc(OC(=O)N(C)C)cc3oc2=O)c1F` [Compound 197] gave a pIC50 with A549 (KRAS-G12S) pERK of 8.37. For the same molecule, the “CRAF A549 pMEK:tMEK [100 nM; 2 hr]” value in the series on A549 pMEK:tMEK (CRAF) was 0.49. Moreover, the half-life at 1 uM turned out to be 53 min in [1] and 38 min in series [2]. For the same molecule, the microsomal CLint at 1 uM in series [1] was 26 µL/min/mg. Moreover, the solubility (kinetic) at 4 h in series [3] was greater than 80 µM. The chromatographic logD in series [4] worked out at 2.9. The molecule further registered a Papp at 4 h, 50 uM in the series “PAMPA (pH 7.4)” of 51 ×10⁻⁶ cm/s. The Tmax in series [5] (setting [7]) came to 9.6 min; in [5] (setting [11]), 30 min; in [5] (setting [12]) it was 30 min; in [5] (setting [13]) it was 60 min; in series [5] (setting [14]), 9.6 min; in series [5] (setting [15]), 60 min. Further, the half-life in [5] (setting [7]) was 143 min; in series [5] (setting [8]), 73.8 min; in [5] (setting [9]) it was 82.8 min. For the same molecule, the bioavailability stood at 47% in series [5] (setting [8]), 100% in series [5] (setting [9]), 42% in series [5] (setting [13]) and 111% in series [5] (setting [15]). Besides, the AUC(0-inf) in [5] (setting [10]) was found to be 7740 ng·h/mL; in [5] (setting [11]) it was 8360 ng·h/mL; in series [5] (setting [12]) it was 3650 ng·h/mL; in series [5] (setting [14]), 31100 ng·h/mL; in [5] (setting [15]), 37100 ng·h/mL. In addition, the AUC(0-t) in series [5] (setting [10]) worked out at 7730 ng·h/mL; in series [5] (setting [11]), 8320 ng·h/mL; in series [5] (setting [12]) it was 3640 ng·h/mL; in series [5] (setting [13]), 3460 ng·h/mL; in series [5] (setting [14]), 31100 ng·h/mL; in series [5] (setting [15]), 36900 ng·h/mL. Besides, the Cmax in series [5] (setting [10]) amounted to 10900 ng/mL; in series [5] (setting [11]) it was 6750 ng/mL; in series [5] (setting [12]), 2320 ng/mL; in series [5] (setting [13]), 1920 ng/mL; in [5] (setting [14]) it was 14200 ng/mL; in series [5] (setting [15]), 12600 ng/mL.
One may read the Papp A→B as how fast a substance crosses the layer from the apical side. Low values mean poor permeation, high ones ready permeation. In “in vitro”, `CC(=O)CC(c1ccccc1)c1c(O)c2ccccc2oc1=O` (centres unmarked) [Warfarin] yielded a Papp A→B at 2 h, 10 μM greater than 1 ×10⁻⁶ cm/s.
Take `Cn1cnc2c(F)c(Nc3ccc(Br)cc3F)c(C(=O)NOCCO)cc21` [binimetinib]: the “muscle gain in patients with BTC” value in [6] is given as “promote muscle gain”.
Consider `C=C[C@H]1C[N@@]2CC[C@H]1C[C@@H]2[C@@H](O)c1ccnc2ccc(OC)cc12` [Quinidine], for which, on CYP450 2D6, the “2D6*” value is recorded as 99.7.
